Laboratory results: patent US6407288B1, “Naphthylsalicylanilides as antimicrobial and antiinflammatory agents” (The Research Foundation of State University of New York, priority 2000, dated 2002)
Converted amounts (≈) assume the structure as drawn.

Assays:
P. ging 381 = assay: MIC microdilution, gram negative; format: cell-based, Porphyromonas gingivalis; conditions: for MIC: Porphyromonas gingivalis, 381
Procedure: The MIC's for the compounds were determined by a modified microdilution tube dilution method described in “Methods for Dilution Antimicrobial Susceptibility Tests for Bacteria that Grow Aerobically” (National Committee for Clinical Laboratory Standards Approved Standards, 1997, NCCLS document M7-A4). In general the modifications were made because of the unique growth requirements for the fastidious oral organisms and for those bacteria that require anaerobic conditions. Reference is also made to “Methods for Antimicrobial Susceptibility of Anaerobic Bacteria” (National Committee for Clinical Laboratory Standards Approved Standards, 1997, NCCLS document M11-A4). Briefly, the methods were as follows. Cultures were grown for 18-24hrs (aerobic bacteria) or 48-72 hrs (anaerobic bacteria) in the appropriate medium. For aerobic bacteria full strength brain heart infusion medium (BHI, Difco) was used. For anaerobic bacteria, half strength BHI (18.5 g/L) was supplemented by adding yeast extract (10 g/L), hemin (0.29 mL of a stock solution containing 0.1 g/200 mL dH2O) and menadione (15 mL of a stock solution containing 0.15 mL in 30 mL 95% EtOH) was used. Initial cultures were diluted to approximately 1×10^8 CFU/mL for use as an inoculum. Each assay received 10 μL of the inoculum. The drugs were prepared from a stock solution contained in dimethyl sulfoxide (DMSO) and diluted into the culture medium. Final concentrations of the drugs ranged from 50 to 0.05 μg/assay. The tests were run in duplicate and were incubated appropriately with regard to oxygen requirements for 24 to 48 hrs as required. Anaerobic incubation was an atmosphere of 5% CO2, 10% H2, with the balance N2. The lowest concentration of an antimicrobial agent at which no visible growth is noted was referred to as the MIC. […] The method used was the same as described in Example 1.

S. aureus = assay: MIC microdilution, gram positive; format: cell-based, Staphlococcus aureus; conditions: Table 2, Gram Positive; for MIC: Staphylococcus aureus
Procedure: The MIC's for the compounds were determined by a modified microdilution tube dilution method described in “Methods for Dilution Antimicrobial Susceptibility Tests for Bacteria that Grow Aerobically” (National Committee for Clinical Laboratory Standards Approved Standards, 1997, NCCLS document M7-A4). In general the modifications were made because of the unique growth requirements for the fastidious oral organisms and for those bacteria that require anaerobic conditions. Reference is also made to “Methods for Antimicrobial Susceptibility of Anaerobic Bacteria” (National Committee for Clinical Laboratory Standards Approved Standards, 1997, NCCLS document M11-A4).
Briefly, the methods were as follows. Cultures were grown for 18-24hrs (aerobic bacteria) or 48-72 hrs (anaerobic bacteria) in the appropriate medium. For aerobic bacteria full strength brain heart infusion medium (BHI, Difco) was used. For anaerobic bacteria, half strength BHI (18.5 g/L) was supplemented by adding yeast extract (10 g/L), hemin (0.29 mL of a stock solution containing 0.1 g/200 mL dH2O) and menadione (15 mL of a stock solution containing 0.15 mL in 30 mL 95% EtOH) was used. Initial cultures were diluted to approximately 1×10^8 CFU/mL for use as an inoculum. Each assay received 10 μL of the inoculum. The drugs were prepared from a stock solution contained in dimethyl sulfoxide (DMSO) and diluted into the culture medium. Final concentrations of the drugs ranged from 50 to 0.05 μg/assay. The tests were run in duplicate and were incubated appropriately with regard to oxygen requirements for 24 to 48 hrs as required. Anaerobic incubation was an atmosphere of 5% CO2, 10% H2, with the balance N2. The lowest concentration of an antimicrobial agent at which no visible growth is noted was referred to as the MIC.
This embodiment describes the sensitivity of various staphylococcus strains to the compounds of the present invention. The staphylococcus species R is a strain 00-045-1209 from the Children's Hospital in Buffalo. It was isolated from the peritoneal cavity (fluid culture) of an individual. It was coagulase negative. The sensitivity of this strain was tested agaisnt several known antibiotics.

P. acnes 6922 = assay: MIC microdilution, gram positive; format: cell-based, Propionibacterium acnes; conditions: Table 1, Gram Positive; for MIC: Cutibacterium acnes, 6922
Procedure: (§1) The MIC's for the compounds were determined by a modified microdilution tube dilution method described in “Methods for Dilution Antimicrobial Susceptibility Tests for Bacteria that Grow Aerobically” (National Committee for Clinical Laboratory Standards Approved Standards, 1997, NCCLS document M7-A4). In general the modifications were made because of the unique growth requirements for the fastidious oral organisms and for those bacteria that require anaerobic conditions. Reference is also made to “Methods for Antimicrobial Susceptibility of Anaerobic Bacteria” (National Committee for Clinical Laboratory Standards Approved Standards, 1997, NCCLS document M11-A4). Briefly, the methods were as follows. Cultures were grown for 18-24hrs (aerobic bacteria) or 48-72 hrs (anaerobic bacteria) in the appropriate medium. For aerobic bacteria full strength brain heart infusion medium (BHI, Difco) was used. For anaerobic bacteria, half strength BHI (18.5 g/L) was supplemented by adding yeast extract (10 g/L), hemin (0.29 mL of a stock solution containing 0.1 g/200 mL dH2O) and menadione (15 mL of a stock solution containing 0.15 mL in 30 mL 95% EtOH) was used. Initial cultures were diluted to approximately 1×10^8 CFU/mL for use as an inoculum. Each assay received 10 μL of the inoculum. The drugs were prepared from a stock solution contained in dimethyl sulfoxide (DMSO) and diluted into the culture medium. Final concentrations of the drugs ranged from 50 to 0.05 μg/assay. The tests were run in duplicate and were incubated appropriately with regard to oxygen requirements for 24 to 48 hrs as required. Anaerobic incubation was an atmosphere of 5% CO2, 10% H2, with the balance N2. The lowest concentration of an antimicrobial agent at which no visible growth is noted was referred to as the MIC.

S. mutans = assay: MIC microdilution, gram positive; format: cell-based, Streptococcus mutans; conditions: Table 1, Gram Positive; for MIC: Streptococcus mutans
Procedure: as §1

A. viscosus = assay: MIC microdilution, gram positive; format: cell-based, Actinomyces viscosus; conditions: Table 2, Gram Positive; for MIC: Actinomyces viscosus
Procedure: as §1

S.salivarius = assay: MIC microdilution, gram positive; format: cell-based, Streptococcus salivarius; conditions: Streptococcus salivarius; Table 1, Gram Positive
Procedure: as §1

P. acnes 11828 = assay: MIC microdilution, gram positive; format: cell-based, Propionibacterium acnes; conditions: Cutibacterium acnes, 11828; Table 1, Gram Positive
Procedure: as §1

S. sanguis = assay: MIC microdilution, gram positive; format: cell-based, Streptococcus sanguis; conditions: Streptococcus; Table 1, Gram Positive
Procedure: as §1

[1] = Table 3 printed a second time, Gram Negative

Compound	MIC P. ging 381 (P. ging 381; Table 3, Gram Negative)	MIC P. ging 381 (P. ging 381; [1])	MIC S. aureus (S. aureus)	MIC P. acnes 6922 (P. acnes 6922)	MIC S. mutans (S. mutans)	MIC A. viscosus (A. viscosus)	MIC (P. ging 381; Table 3, Gram Negative) [µg/mL]	MIC (S. aureus) [µg/mL]	MIC (P. acnes 6922) [µg/mL]	MIC (S. mutans) [µg/mL]	MIC (A. viscosus) [µg/mL]	MIC (S.salivarius) [µg/mL]	MIC (P. acnes 11828) [µg/mL]	MIC (S. sanguis) [µg/mL]
COc1cc(NC(=O)c2cc(C(=O)c3cccc4ccccc34)ccc2O)cc(OC)c1 [NA1-2mOMe]	NE (NE indicates that the drug was not effective at a concentration >50 micrograms/ml)	NE (NE indicates that the drug was not effective at a concentration >50 micrograms/ml)	NE (NE indicates that the drug was not effective at a concentration >50 micrograms/ml)	NE (NE indicates that the drug was not effective at a concentration >50 micrograms/ml)	NE (NE indicates that the drug was not effective at a concentration >50 micrograms/ml)	NE (NE indicates that the drug was not effective at a concentration >50 micrograms/ml)								
O=C(Nc1cccc(COc2ccccc2)c1)c1cc(C(=O)c2cccc3ccccc23)ccc1O [NA1_3BnOP]		3.1 micrograms/ml					3.1 (≈ 6.55 µM)	> 50	> 50	> 50	6.3 (≈ 13.3 µM)			
N#Cc1ccc(NC(=O)c2cc(C(=O)c3cccc4ccccc34)ccc2O)c2ccccc12 [NA1NpC]	0.2 micrograms/ml	0.2 micrograms/ml	NE (NE indicates that the drug was not effective at a concentration >50 micrograms/ml)	0.4 micrograms/ml	NE (NE indicates that the drug was not effective at a concentration >50 micrograms/ml)	0.8 micrograms/ml								
O=C(Nc1cccc(C(F)(F)F)c1)c1cc(C(=O)c2c(O)ccc3ccccc23)ccc1O [NA1OHmF]		0.8 micrograms/ml					0.8 (≈ 1.77 µM)	> 50	3.1 (≈ 6.87 µM)	6.3 (≈ 14 µM)	0.8 (≈ 1.77 µM)			
O=C(Nc1cc(C(F)(F)F)cc(C(F)(F)F)c1)c1cc(C(=O)c2cccc3ccccc23)ccc1O [NAmF2]		0.2 micrograms/ml					0.2 (≈ 0.397 µM)	> 50	0.4 (≈ 0.795 µM)	1.6 (≈ 3.18 µM)	0.8 (≈ 1.59 µM)			
O=C(Nc1ccccc1)c1cc(C(=O)c2cccc3ccccc23)ccc1O [NA1, 2-Hydroxy-5-(naphthalene-1-carbonyl)-N-phenyl-benzamide]		1.6 micrograms/ml					1.6 (≈ 4.35 µM)	50 (≈ 136 µM)	25 (≈ 68 µM)	50 (≈ 136 µM)	3.1 (≈ 8.44 µM)	> 50	> 50	> 50
O=C(Nc1cccc(Oc2ccccc2)c1)c1cc(C(=O)c2cccc3ccccc23)ccc1O [NA1mOPh]	NE (NE indicates that the drug was not effective at a concentration >50 micrograms/ml)	NE (NE indicates that the drug was not effective at a concentration >50 micrograms/ml)	NE (NE indicates that the drug was not effective at a concentration >50 micrograms/ml)	NE (NE indicates that the drug was not effective at a concentration >50 micrograms/ml)	NE (NE indicates that the drug was not effective at a concentration >50 micrograms/ml)	NE (NE indicates that the drug was not effective at a concentration >50 micrograms/ml)								
O=C(c1ccccc1)c1ccc(NC(=O)c2cc(C(=O)c3cccc4ccccc34)ccc2O)cc1 [NA1pBz]	NE (NE indicates that the drug was not effective at a concentration >50 micrograms/ml)	NE (NE indicates that the drug was not effective at a concentration >50 micrograms/ml)	NE (NE indicates that the drug was not effective at a concentration >50 micrograms/ml)	NE (NE indicates that the drug was not effective at a concentration >50 micrograms/ml)	NE (NE indicates that the drug was not effective at a concentration >50 micrograms/ml)	NE (NE indicates that the drug was not effective at a concentration >50 micrograms/ml)								
